Our source for the koff and kon values is patent publication US20090022714A1, “Combination methods of inhibiting tumor growth with a vascular endothelial growth factor receptor antagonist” (ImClone Systems, Inc., priority 2001, published 2009).

This test deals with T1, KDR (VEGFR-2) (Homo sapiens, UniProt P35968).
T1 construct: the cDNA for KDR (VEGFR-2) extracellular domain is fused in-frame with the cDNA for human placental AP; made in house; host or cells: stably transfected NIH 3T3 cells, purified from supernatant on anti-AP antibody
In words: BIAcore analysis of p1C11 scFv, c-p1C11 and VEGF. The test is classed as binding. The protocol:
The binding kinetics of antibodies to KDR (VEGFR-2) were measured using BIAcore biosensor (Pharmacia Biosensor). […] Sensorgrams were obtained at each concentration and were evaluated using a program, BIA Evaluation 2.0, to determine the rate constants kon and koff. Kd was calculated as the ratio of rate constants koff/kon.

T1 sequence (P35968 20-764 limits assumed): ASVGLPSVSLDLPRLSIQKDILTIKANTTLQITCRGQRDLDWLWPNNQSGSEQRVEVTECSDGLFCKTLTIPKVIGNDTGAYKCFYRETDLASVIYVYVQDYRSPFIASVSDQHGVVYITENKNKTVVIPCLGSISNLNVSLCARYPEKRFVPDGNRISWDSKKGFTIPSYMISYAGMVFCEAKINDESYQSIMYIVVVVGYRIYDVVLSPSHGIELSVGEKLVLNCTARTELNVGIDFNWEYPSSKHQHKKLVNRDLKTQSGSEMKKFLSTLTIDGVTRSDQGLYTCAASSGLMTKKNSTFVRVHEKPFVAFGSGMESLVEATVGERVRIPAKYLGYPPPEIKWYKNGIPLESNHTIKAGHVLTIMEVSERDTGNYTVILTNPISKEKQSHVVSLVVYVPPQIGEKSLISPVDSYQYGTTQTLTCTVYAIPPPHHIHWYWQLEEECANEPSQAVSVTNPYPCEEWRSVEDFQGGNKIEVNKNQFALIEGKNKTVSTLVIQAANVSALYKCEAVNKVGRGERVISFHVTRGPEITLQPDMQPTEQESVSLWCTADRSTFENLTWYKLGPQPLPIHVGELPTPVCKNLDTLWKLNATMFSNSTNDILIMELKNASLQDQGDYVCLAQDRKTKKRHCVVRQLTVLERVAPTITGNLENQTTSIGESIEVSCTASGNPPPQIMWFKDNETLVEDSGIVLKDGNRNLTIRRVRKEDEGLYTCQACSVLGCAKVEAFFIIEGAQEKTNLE

Take VEGF [reference compound]: the koff is recorded as 1.81 10^−4 s^−1 and the kon is listed as 1.87 10^5 M^−1s^−1.
